Laboratory results taken from patent publication US10913983B2, “Sensitivity markers and uses for CDK7 inhibitors in breast cancers” (UNIVERSITY OF SOUTH CAROLINA, priority 2017, dated 2021).

Key:
Assay type in all cases: cell-based
[1] = tested on: panel of breast cancer cell lines; experiment: Cell proliferation MTT assay, cell line panel; settings: 7 days
Procedure: (§1) Cells were seeded in 12-well plates at densities ranging from 10000-30000 cells/well and after 24 hours cells were treated with 10, 40 and 100 nM THZ1 in triplicate. After 7 days the cells were imaged using Zeiss Axiovert 200 microscope using a 20× objective lens. Additionally, cells were plated in 96-well plates at a density of 2000 cells/well and after 24 hours treated with 0-10 μM THZ1. After 2 and 7 days the growth of the cells was measured by MTT assay.
(§2) All results were presented as mean±standard deviation of 4-8 parallel assessments. Similar results were obtained from a minimum of two independent experiments. […] Densitometry was performed on duplicate immunoblots using ImageLab software (Biorad) and normalized to tubulin loading controls and then correlated with the THZ1 IC50 values of each cell line. Statistical analyses were performed using SPSS 18.0 (SPSS Inc). Bi-variant scatter graphs and Spearman rank analyses were performed to evaluate associations between protein levels, mRNA and response to inhibition. IC50 values were calculated for MTT assays using CompuSyn software.
To investigate the effect of CDK7 inhibition in a time and dose dependent manner, an extended panel of 11 breast cancer cell lines were screened for response to THZ1 after 2 and 7 days of treatment.

JIMT-1 = experiment: Cell proliferation MTT assay; settings: JIMT-1, 7 days, MTT; read-out: 7 day IC50
Procedure: as §1, §2

MDA-MB-361 = experiment: Cell proliferation MTT assay; settings: MDA-MB-361, 7 days, read-out: 7 day IC50
Procedure: as §1, §2

T47D = experiment: Cell proliferation MTT assay; settings: 7 days, read-out: 7 day IC50
Procedure: as §1, §2

ZR-75-1 = experiment: Cell proliferation MTT assay; settings: ZR-75-1, 7 days, read-out: 7 day IC50
Procedure: as §1, §2

MDA-MB-231 = experiment: Cell proliferation MTT assay; settings: MDA-MB-231, 7 days, read-out: 7 day IC50
Procedure: as §1, §2

MCF7 = experiment: Cell proliferation MTT assay; settings: MCF7, 7 days, read-out: 7 day IC50
Procedure: as §1, §2

SKBR3 = experiment: Cell proliferation MTT assay; settings: SKBR3, 7 days, read-out: 7 day IC50
Procedure: as §1, §2

- IC50 (MDA-MB-361): 4.9 µM
- IC50 (T47D): 8.5 µM
- IC50 (MDA-MB-231): 39.5 µM
- IC50 (MCF7): 32.1 µM
- IC50 (SKBR3): 8.9 µM
SMILES: CC(C)c1cnn2c(NCc3ccccc3)cc(NCCCCCCN)nc12 [BS-181]
- growth inhibition ([1]; all tested breast cancer cell lines): inhibited the growth of all tested breast cancer cell lines
- efficiency of growth inhibition compared with THZ1 ([1]; cell line panel): much less efficient than THZ1
- IC50 (JIMT-1): 11.1 µM
- IC50 (ZR-75-1): 19.6 µM
